From US6972287B1, “Method of inhibiting amyloid protein aggregation and imaging amyloid deposits” (Pfizer Inc., priority 1999, dated 2005)
Where “and” joins values, the source holds several entries; their conditions need not be identical. Equal values may be shown once. Where a name gives a salt, the structure may show the parent alone.

Key:
Format in all cases: biochemical
Aβ(1-40) [1] = target: T1, Aβ(1-40) (Homo sapiens, UniProt P05067); experiment: BASSR (Beta-Amyloid Self-Seeding Radioassay), inhibitors of self-seeded amyloid fibril growth
T1 construct: […]; purchased Bachem, Torrance, Calif
Protocol: BASSR (Beta-Amyloid Self-Seeding Radioassay)
(§1) An assay for inhibitors of self-seeded amyloid fibril growth
Assay Buffer—50 mM sodium phosphate, pH 7.5, 100 mM NaCl, 0.02% NaN3, 1 M urea (filter and store at 4° C.).
(§2) Typically, the solution should be stored until no lag phase is seen in the assay.
^125I-labeled Aβ(1-40)—150K-350K cpm/μL in 100% acetonitrile—0.1% trifluoroacetic acid (TFA)—1% β-mercaptoethanol (aliquots stored at −20° C.). ^125I-labeled Aβ(1-40) can be made in accordance with the procedure set forth by H. LeVine, III in Neurobiol. Aging, 16, 755, (1995), which is hereby incorporated by reference, or this reagent may be purchased from Amersham, Arlington Heights, Ill.
The following are the amounts of the components of the reaction mixture sufficient for 50 assay wells:
• 1) Prepare reaction mixture above by mixing components and storing on ice. • 2) Pipet 14.5 μL of reaction mixture into each of 50 wells on a polypropylene U-bottom 96-well microtiter plate on ice. (Costar 3794). • 3) Add 1.7 μL of diluted compound to be tested to each well in a column of eight, including solvent control. Serial 3-fold dilutions from 1 mM (100 μM final) in assay buffer−urea=7 dilutions+zero. Each 96-well plate can therefore accommodate 11 samples+1 Congo Red control (0.039-5 μM final in 2-fold steps). • 4) Seal the plate with aluminum film (Beckman 538619) and incubate for 10 minutes on ice. • 5) Raise the temperature to 37° C. and incubate for 3 to 5 hours (depending on the lot of the peptide). • 6) Remove the aluminum film and add 200 μL/well of ice cold assay buffer with urea, collecting the radiolabeled fibrils by vacuum filtration through 0.2 μm pore size GVWP filters in 96-well plates (Millipore MAGV N22, Bedford, Mass.). Determine the radioactivity of the filters using standard methods well-known to those skilled in the art. BASST (Beta-Amyloid Self-Seeding, Thioflavin T)

Aβ(1-40) [2] = target: T1, Aβ(1-40); experiment: BASST (Beta-Amyloid Self-Seeding, Thioflavin T), inhibitors of self-seeded amyloid fibril growth
Protocol: as §1
Assay Buffer—50 mM sodium phosphate, pH 7.5, 100 mM NaCl, 0.02% NaN3, 1 M urea (filter and store at 4° C.)
as §2
The following are the amounts of the components of the reaction mixture that result in each of the 50 assay wells:
• 1) Prepare the reaction mix above by mixing the components and storing on ice. • 2) Pipet 14.5 μL of reaction mixture into each of 50 wells of a polystyrene U-bottom 96-well microtiter plate (Corning 25881-96) on ice. • 3) Add 1.7 μL of diluted compound to be tested to each well in a column of eight, including solvent control. Serial 3-fold dilutions from 1 mM (100 μM final) in assay buffer−urea=7 dilutions+zero. Each 96-well plate can therefore accommodate 11 samples+1 Congo Red control (0.039-5 μM final in 2-fold steps). • 4) Seal the plate with aluminum film and incubate for 10 minutes on ice. • 5) Raise the temperature to 37° C. and incubate for 3 to 5 hours (depends on the lot of the peptide). • 6) Remove the aluminum film and add 250 μL/well of 5 μM thioflavin T (ThT) [T-3516, Sigma-Aldrich] in 50 mM glycine-NaOH, pH 8.5. Read fluorescence on a plate reader (ex=440 nm/20 nm; em=485 nm/20 nm) within 5 minutes. BAPA (Beta-Amyloid Peptide Aggregation)

Aβ (1-42) = target: T2, Aβ (1-42) (Homo sapiens, UniProt P05067); experiment: BATYM assay (Aβ (1-42) aggregation, Thioflavin T fluorescence); settings: Aβ 1-42 final concentration 100 μM, 37° C., 1 day, letter = synthetic lot
T2 construct: Required Aβ (1-42) (California Peptide) was dried from its hexafluoroisopropanol (HFIP) stock solution; purchased California Peptide
Protocol: Required Aβ (1-42) (California Peptide) was dried from its hexafluoroisopropanol (HFIP) stock solution. The Aβ (1-42) was dissolved in dimethylsulfoxide (DMSO) and then mixed with phosphate buffered saline (PBS) (pH 7.4). The mixed Aβ (1-42) solution was filtered with a 0.2 μm Omnipore membrane syringe filter Millipore, Bedford, Mass.). The compound to be tested in DMSO (50 times concentrate) was put into each well (0.5 μL/well) of a 96-well plate. The Aβ (1-42) solution was added into each well (24.5 μL/well). The plate was centrifuged at 1,000 g for 5 minutes and incubated at 37° C. for 1 day (Aβ 1-42; final concentration 100 μM).
After incubation Thioflavin T (ThT) (30 μM) solution in glycine-NaOH buffer (pH 8.5, 50 mM) was added into each well (250 μL/well), fluorescence was measured (ex=440/20 nm, em=485/20 nm) using a fluorescence plate reader. The inhibitory activity was calculated as the reduction of fluorescence with the following formula: Inhibition (%)={(F(Aβ)−F(Aβ+compound)}/{F(Aβ)−[…]}×100
The IC50s were calculated by a curve fitting program using the following equation. The data were obtained from two different experiments in triplicate.
x=Concentration of tested compound (M),

Aβ (1-40) peptide = target: T3, Aβ (1-40) peptide (Homo sapiens, UniProt P05067); experiment: BAPA (Beta-Amyloid Peptide Aggregation, pH 6.0, filtration); settings: Aβ (1-40) 33 μM, pH 6.0, 2 to 4 hours at room temperature; replicate values; letter = synthetic lot
T3 construct: 10 μL 0.5 mg/mL Aβ (1-40) peptide in 20% HFIP
Protocol: Each 96-well plate can therefore accommodate 11 samples+1 Congo Red control (0.039-5 μM final in 2-fold steps). • 4) Seal the plate with aluminum film and incubate for 10 minutes on ice. • 5) Raise the temperature to 37° C. and incubate for 3 to 5 hours (depends on the lot of the peptide). • 6) Remove the aluminum film and add 250 μL/well of 5 μM thioflavin T (ThT) [T-3516, Sigma-Aldrich] in 50 mM glycine-NaOH, pH 8.5. […] The purpose of this assays is to provide a higher volume method of assaying the amount of beta amyloid aggregation using an endpoint assay based on filtration. In this assay, hexafluoroisopropanol (HFIP) is used to break down the initial amyloid peptide to a monomer state and use a concentration of 33 μM which is high enough so that aggregation will occur at pH 6.0 in several hours. Methods: […] Then, we incubate for 2 to 4 hours at room temperature. […] We wash the filter plate with 100 μL of the same phosphate buffer. Aggregation was detected on a Microbeta counter after impregnating the filters with Meltilex (1450-441) and is corrected for background.

[3] = 30 μM soluble Aβ(1-40) + 125I-labeled Aβ(1-40), 37° C., 3 to 5 hours, replicate values, letter = synthetic lot, ppt = precipitate, V-shaped = inhibition followed by precipitation
[4] = 30 μM soluble Aβ(1-40), 37° C., 3 to 5 hours, thioflavin T fluorescence, replicate values, letter = synthetic lot, read-out: BASST (IC50 = μM)

T3 sequence (P05067 672-711 limits assumed): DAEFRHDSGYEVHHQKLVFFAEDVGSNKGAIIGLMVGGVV
T1 sequence (P05067 672-711 limits assumed): as above
T2 sequence (P05067 672-713 limits assumed): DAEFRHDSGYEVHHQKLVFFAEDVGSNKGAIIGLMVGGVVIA

## 2-{4-[3-(3-Aminophenyl)propyl]phenylamino}benzoic acid [Example 23]
Aβ(1-40) [1]
  IC50: 20 µM
Aβ(1-40) [2]; read-out: BASST (IC50 = μM)
  IC50: 2 µM
Aβ (1-42)
  IC50: > 100 µM
Aβ (1-40) peptide
  IC50: 17 µM

## 2-{4-[5-(3,4-Dichloro-phenyl)pentyl]phenylamino}methoxy-5-nitrobenzoic acid [Example 14]
Aβ(1-40) [1]; [3]
  IC50: 18 µM and 8 µM and 6 µM and 7 µM
Aβ(1-40) [2]; [4]
  IC50: 1 µM
Aβ (1-42)
  IC50: 10.9 µM
Aβ (1-40) peptide
  IC50: > 10 µM

## O=C(O)c1ccccc1Nc1ccc(CCc2cc(O)c(O)c(O)c2)cc1 [Example 6, 2-{4-[2-(3,4,5-Trihydroxy-phenyl)-ethyl]phenylamino}benzoic acid]
Aβ(1-40) [1]; [3]
  IC50: 15 µM and 21 µM and 20 µM and 40 µM
Aβ(1-40) [2]; [4]
  IC50: 4 µM and 1 µM and 3 µM
Aβ (1-42)
  IC50: 21.5 µM
Aβ (1-40) peptide
  IC50: > 60 µM

## COc1cc(Nc2ccc(CCCc3ccc(Cl)c(Cl)c3)cc2)c(C(=O)O)cc1[N+](=O)[O-] [Example 7]
Aβ(1-40) [1]; [3]
  IC50: 18 µM and 13 µM and 12 µM and 20 µM
Aβ(1-40) [2]; [4]
  IC50: 2 µM
Aβ (1-42)
  IC50: 8.83 µM
Aβ (1-40) peptide
  IC50: 39 µM

## O=C(O)c1ccccc1Nc1ccc(CCCCc2ccc(Cl)c(Cl)c2)cc1 [Example 10, 2-{4-[4-(3,4-Dichlorophenyl)butyl]phenylamino}benzoic acid]
Aβ(1-40) [1]; [3]
  IC50: 70 µM and 50 µM
Aβ(1-40) [2]; [4]
  IC50: 4 µM
Aβ (1-42)
  IC50: 75.7 µM
Aβ (1-40) peptide
  IC50: 67 µM

## O=C(O)c1cc([N+](=O)[O-])ccc1Nc1ccc(CCCCc2ccc(Cl)c(Cl)c2)cc1 [Example 11, 2-{4-[4-(3,4-Dichloro-phenyl)-butyl]-phenylamino}-5-nitro-benzoic acid]
Aβ(1-40) [1]; [3]
  IC50: 18 µM and 20 µM (2×) and > 100 µM (2×) and 21 µM and 30 µM
Aβ(1-40) [2]; [4]
  IC50: 1 µM (3×) and 3 µM and 800 nM
Aβ (1-42)
  IC50: 5.62 µM and 6.78 µM
Aβ (1-40) peptide
  IC50: 23 µM and 9 µM

## O=C(O)c1cc([N+](=O)[O-])cc([N+](=O)[O-])c1Nc1ccc(CCCCc2ccc(Cl)c(Cl)c2)cc1 [Example 12, 2-{4-[4-(3,4-Dichlorophenyl)butyl]phenylamino}-3,5-dinitrobenzoic acid]
Aβ(1-40) [1]; [3]
  IC50: 20 µM
Aβ(1-40) [2]; [4]
  IC50: 1 µM
Aβ (1-42)
  IC50: 3.93 µM
Aβ (1-40) peptide
  IC50: > 60 µM

## O=C(O)c1ccccc1Nc1ccc(CCc2ccc(Cl)c(C(F)(F)F)c2)cc1 [Example 17]
Aβ(1-40) [1]
  IC50: > 100 µM
Aβ(1-40) [2]; read-out: BASST (IC50 = μM)
  IC50: 6.2 µM
Aβ (1-42)
  IC50: 64.5 µM
Aβ (1-40) peptide
  IC50: > 60 µM and 41 µM

## Nc1ccc(CCCc2ccc(Nc3ccccc3C(=O)O)cc2)cc1 [Example 22, 2-{4-[3-(4-Aminophenyl)propyl]phenylamino}benzoic acid]
Aβ(1-40) [1]; [3]
  IC50: 3 µM
Aβ(1-40) [2]; [4]
  IC50: 9 µM
Aβ (1-42)
  IC50: > 100 µM
Aβ (1-40) peptide
  IC50: 24 µM

## CCN(CC)c1ccc(CCc2ccc(Nc3ccccc3C(=O)O)cc2)cc1 [Example 26, 2-{4-[2-(4-Diethylaminophenyl)ethyl]phenylamino}benzoic acid monohydrochloride monohydrate]
Aβ(1-40) [2]; BASST (IC50 = μM)
  IC50: 1 µM
Aβ (1-42)
  IC50: > 100 µM
Aβ (1-40) peptide
  IC50: 57 µM

## CCCN(CCC)c1cccc(CCCc2ccc(Nc3ccccc3C(=O)O)cc2)c1 [Example 27, 2-{4-[3-(3-Dipropylaminophenyl)propyl]phenylamino}benzoic acid]
Aβ(1-40) [1]; [3]
  IC50: > 100 µM
Aβ(1-40) [2]; [4]
  IC50: 3 µM
Aβ (1-42)
  IC50: 19.8 µM
Aβ (1-40) peptide
  IC50: 74 µM

## CCN(CC)c1ccc(CCCc2ccc(N(CC)c3ccccc3C(=O)O)cc2)cc1 [Example 30, 2-(N-{4-[3-(4-Diethylaminophenyl)propyl]phenyl}-N-ethylamino)benzoic acid]
Aβ(1-40) [1]; [3]
  IC50: 30 µM and 20 µM
Aβ(1-40) [2]; [4]
  IC50: 4 µM and 2 µM
Aβ (1-42)
  IC50: 75.3 µM
Aβ (1-40) peptide
  IC50: 38 µM

## CCN(CC)c1cccc(CCCc2ccc(Nc3ccccc3C(=O)O)cc2)c1 [Example 32, 2-{4-[3-(3-Diethylaminophenyl)propyl]phenylamino}benzoic acid]
Aβ(1-40) [1]; [3]
  IC50: > 100 µM
Aβ(1-40) [2]; [4]
  IC50: 1 µM
Aβ (1-42)
  IC50: 29.2 µM
Aβ (1-40) peptide
  IC50: 96 µM

## CN(C)c1ccc(CCCc2ccc(Nc3ccccc3C(=O)O)cc2)cc1 [Example 34, 2-{4-[3-(4-Dimethylaminophenyl)propyl]phenylamino}benzoic acid]
Aβ(1-40) [1]; [3]
  IC50: 45 µM
Aβ(1-40) [2]; [4]
  IC50: 3 µM
Aβ (1-42)
  IC50: 45 µM
Aβ (1-40) peptide
  IC50: 48 µM

## CCCN(CCC)c1ccc(CCCc2ccc(Nc3ccccc3C(=O)O)cc2)cc1 [Example 43, 2-{4-[3-(4-Dipropylaminophenyl)propyl]phenylamino}benzoic acid]
Aβ(1-40) [1]; [3]
  IC50: > 100 µM
Aβ(1-40) [2]; [4]
  IC50: 0.3 µM
Aβ (1-42)
  IC50: 24.2 µM
Aβ (1-40) peptide
  IC50: 63 µM

## CCCCN(CCCC)c1ccc(CCCc2ccc(Nc3ccccc3C(=O)O)cc2)cc1 [Example 44, 2-{4-[3-(4-Dibutylaminophenyl)propyl]phenylanino}benzoic acid]
Aβ(1-40) [1]; [3]
  IC50: > 100 µM
Aβ(1-40) [2]; [4]
  IC50: 1 µM
Aβ (1-42)
  IC50: 26.5 µM
Aβ (1-40) peptide
  IC50: 52 µM

## CCCCN(CCCC)c1cccc(CCCc2ccc(Nc3ccccc3C(=O)O)cc2)c1 [Example 45, 2-{4-[3-(3-Dibutylaminophenyl)propyl]phenylamino}benzoic acid]
Aβ(1-40) [1]; [3]
  IC50: > 100 µM
Aβ(1-40) [2]; [4]
  IC50: 1 µM
Aβ (1-42)
  IC50: 21.5 µM
Aβ (1-40) peptide
  IC50: 32 µM

## Clc1ccc(CCc2ccc(Nc3ccccc3-c3nnn[nH]3)cc2)cc1Cl [Example 68, {4-[2-(3,4-Dichloro-phenyl)-ethyl]-phenyl}-[2-(1H-tetrazol-5-yl)phenyl]-amine]
Aβ(1-40) [1]; [3]
  IC50: > 100 µM
Aβ(1-40) [2]; [4]
  IC50: 1 µM
Aβ (1-42)
  IC50: > 100 µM
Aβ (1-40) peptide
  IC50: 110 µM

## O=C(O)c1ccccc1Nc1ccc(CCc2ccc(Cl)c(Cl)c2)cc1 [Example 117, 2-{4-[2-(3,4-Dichloro-phenyl)-ethyl]-phenylamino}-benzoic acid monosodium]
Aβ(1-40) [1]; [3]
  IC50: > 100 µM
Aβ(1-40) [2]; [4]
  IC50: 3 µM
Aβ (1-42)
  IC50: 61.3 µM
Aβ (1-40) peptide
  IC50: > 100 µM
